Laboratory results: ChEMBL document CHEMBL5154642, “Development of [18F]MIPS15692, a radiotracer with in vitro proof-of-concept for the imaging of MER tyrosine kinase (MERTK) in neuroinflammatory disease” (Eur J Med Chem, 2021)
pKd: −log10 of the molar value.

Columns and labels:
[1] = Drug uptake in Swiss outbred mouse brain assessed as time required to reach peak value at 3 mg/kg, iv measured after 60 mins by LC-MS/MS analysis; type: ADME, organism-based
[2] = Unbound brain-to-plasma concentration ratio in Swiss outbred mouse at 4.4 mg/kg, iv measured after 2 hrs; type: ADME, organism-based; conditions: read-out: K(p,uu,brain)
[3] = biological target: T1, Tyrosine-protein kinase Mer (Mus musculus) (UniProt Q60805); assay: Binding affinity to MERTK in cuprizone-challenged C57BL/6 mouse whole brain assessed as maximum binding at 18.1 nM by autoradiography; type: tissue-based; conditions: tested as the 18F-labelled form
T1 sequence (whole entry): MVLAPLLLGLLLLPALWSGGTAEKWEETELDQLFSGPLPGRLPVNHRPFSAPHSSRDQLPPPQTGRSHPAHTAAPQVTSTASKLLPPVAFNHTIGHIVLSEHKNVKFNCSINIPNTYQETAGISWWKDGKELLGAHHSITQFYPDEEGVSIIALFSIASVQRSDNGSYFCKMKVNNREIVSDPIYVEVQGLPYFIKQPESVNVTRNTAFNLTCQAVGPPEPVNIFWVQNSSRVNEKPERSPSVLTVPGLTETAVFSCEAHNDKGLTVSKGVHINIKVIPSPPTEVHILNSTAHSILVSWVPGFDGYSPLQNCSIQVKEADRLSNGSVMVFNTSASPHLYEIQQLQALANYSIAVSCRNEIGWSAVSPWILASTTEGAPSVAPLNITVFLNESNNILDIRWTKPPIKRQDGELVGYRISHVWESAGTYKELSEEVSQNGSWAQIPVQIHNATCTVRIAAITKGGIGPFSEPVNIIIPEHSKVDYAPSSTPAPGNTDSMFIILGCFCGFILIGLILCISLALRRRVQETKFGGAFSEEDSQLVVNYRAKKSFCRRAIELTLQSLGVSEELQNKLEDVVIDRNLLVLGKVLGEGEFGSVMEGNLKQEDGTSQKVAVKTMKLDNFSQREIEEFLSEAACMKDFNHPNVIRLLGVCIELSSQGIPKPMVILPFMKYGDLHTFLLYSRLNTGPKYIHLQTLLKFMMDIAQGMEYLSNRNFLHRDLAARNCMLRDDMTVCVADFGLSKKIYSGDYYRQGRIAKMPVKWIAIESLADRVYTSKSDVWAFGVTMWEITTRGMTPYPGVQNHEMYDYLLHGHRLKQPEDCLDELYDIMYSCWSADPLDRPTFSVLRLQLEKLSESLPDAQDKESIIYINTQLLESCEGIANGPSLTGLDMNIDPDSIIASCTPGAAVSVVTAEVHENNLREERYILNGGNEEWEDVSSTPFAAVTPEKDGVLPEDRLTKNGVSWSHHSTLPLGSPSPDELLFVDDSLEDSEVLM

[4] = biological target: T1, Tyrosine-protein kinase Mer (Mus musculus); assay: Binding affinity to MERTK in cuprizone-challenged C57BL/6 mouse brain CC/HC region assessed as maximum binding at 18.1 nM by autoradiography; type: tissue-based; conditions: tested as the 18F-labelled form
[5] = biological target: T2, Tyrosine-protein kinase Mer (Mus musculus, UniProt Q60805); assay: Binding affinity to MERTK in cuprizone-challenged C57BL/6 mouse whole brain assessed as dissociation constant at 18.1 nM by autoradiography; type: tissue-based
T2 sequence (Q60805 whole entry): T1 sequence (whole entry)

[6] = biological target: T2, Tyrosine-protein kinase Mer; assay: Binding affinity to MERTK in cuprizone-challenged C57BL/6 mouse brain CC/HC region assessed as dissociation constant at 18.1 nM by autoradiography; type: tissue-based
[7] = Drug uptake in liver of cuprizone-challenged C57BL/6 mouse at 4.4 mg/kg, iv by PET imaging; type: ADME, organism-based; conditions: in vivo
[8] = Drug uptake in heart of cuprizone-challenged C57BL/6 mouse at 4.4 mg/kg, iv by PET imaging; type: ADME, organism-based; conditions: in vivo
[9] = Drug uptake in brain of cuprizone-challenged C57BL/6 mouse at 4.4 mg/kg, iv by PET imaging measured upto 2 mins; type: ADME, organism-based; conditions: in vivo
[10] = Retention time of the compound by HPLC analysis; type: physicochemical
[11] = Retention time of the compound by UV-Vis spectroscopy analysis; type: physicochemical

Kp uu at 2 h [2] | Bmax [3] [fmol/mg] | Bmax [4] [fmol/mg] | pKd [5] | pKd [6] | Drug uptake [7] | Drug uptake [8] | Drug uptake [9] [%] | Retention_time [10] [min] | Retention_time [11] [min] | Structure (SMILES) | Tmax [1] [min]
> 1 | 422 | 896 | – | – | – | – | – | – | – | CCCCNc1ncc(C(=O)NC2CCN(CCCF)CC2)c(N[C@H]2CC[C@H](O)CC2)n1 | 15
– | – | – | – | – | – | – | – | – | – | CCCCNc1ncc(C(=O)NC2CCN(CCF)CC2)c(N[C@H]2CC[C@H](O)CC2)n1 | 15
– | – | – | 7.90 | 7.71 | <= 0.24% | <= 0.24% | 0.023 | 18.57 | 18.8 | CCCCNc1ncc(C(=O)NC2CCN(CCC[18F])CC2)c(N[C@H]2CC[C@H](O)CC2)n1 | –
